Assay results taken from patent US12172992B2, “Pyrimidines for degrading Bruton's tyrosine kinase” (AbbVie Inc., priority 2022, dated 2024).

How the values were obtained:
[1] = target: BTK protein in human whole blood (Homo sapiens (Human), UniProt Q06187); experiment: Btk protein in human whole blood MSD ELISA based assay (BTK degradation); type: cell-based; conditions: 6 hours, maximum BTK degradation compared to DMSO only treated samples, read-out: hWB BTK dMax (%)
Procedure: Btk protein degradation was tested using an Meso Scale Discovery-ELISA system (MSD-ELISA): (1) Test compounds were added to human whole blood; (2) human whole blood cells treated with test compounds were lysed; (3) lysed cells were treated with capture antibody, an antibody to Btk; (4) lysed cells were treated with […] to Btk; and (5) lysed cells were treated with anti-mouse antibody (tagged).
Specifically, about 80 μl of fresh human whole blood from healthy donors was transferred into each well of a 96-well V-bottom plate (Costar, Cat No. 3894). Using a TECAN™ D300e Digital Dispenser (Tecan)), 1:4 serially diluted compounds [(8 pt assay) in DMSO solution (final 0.2%) starting at 3 μM top concentration], were added in duplicate. Thereafter, plates were placed in a 37° C. incubator and incubated for 6 hours.
At the end of incubation, 80 μl of 2×CST lysis buffer (Cell Signaling Technology, Cat No. 9803), prepared from a 10× stock solution, was added per well to lyse the blood. Plates were then sealed with a plate sealer and the samples were frozen overnight at −80° C.
Total amount of BTK protein remaining in the blood samples after compound treatment was measured using MSD-ELISA. After thawing the frozen plates, blood lysates were mixed thoroughly and transferred to small spot high-bind MSD plates (Meso Scale Discovery, Cat No. L45XB-3) and coated with capturing antibody, rabbit anti-human BTK (D3H5) (Cell Signaling Technology, Cat No. 8547CF). Thereafter, primary detection antibody, mouse anti-human BTK monoclonal antibody, (BD Biosciences, Cat No. 611117) and secondary detection antibody, anti-mouse SULFO-TAG (Meso Scale Discovery, Cat No. R32AC-1) were added. The assay plates were read on an MSD S600 plate reader by the addition of 2×MSD read buffer (Meso Scale Discovery, R92TC-1). All reagent transfers, including blood lysis, was conducted using a Biomed i7 liquid handler. From the dose response curves, DC50 values were calculated by averaging data from duplicate experiments. and Curve fitting was done by non-linear regression using GraphPad Prism. The DC50 values are reported in Table 2 in the hWB BTK DC50 (nM) column The Dmax values represent the maximum amount of BTK degradation observed upon compound treatment compared to DMSO only treated samples. The dMax (%) values are reported in Table 2 in the hWB BTK dMax (%) column.

BTK in mouse bone marrow = BTK in mouse bone marrow (Mus musculus (Mouse), UniProt P35991); experiment: Mouse Bone Marrow Assay (MSD ELISA of BTK degradation in bone marrow); type: in vivo; conditions: female C57BL/6J mice, single dose of Dose A, bone marrow collected after 24 hours
Sequence of BTK in mouse bone marrow (P35991 whole entry): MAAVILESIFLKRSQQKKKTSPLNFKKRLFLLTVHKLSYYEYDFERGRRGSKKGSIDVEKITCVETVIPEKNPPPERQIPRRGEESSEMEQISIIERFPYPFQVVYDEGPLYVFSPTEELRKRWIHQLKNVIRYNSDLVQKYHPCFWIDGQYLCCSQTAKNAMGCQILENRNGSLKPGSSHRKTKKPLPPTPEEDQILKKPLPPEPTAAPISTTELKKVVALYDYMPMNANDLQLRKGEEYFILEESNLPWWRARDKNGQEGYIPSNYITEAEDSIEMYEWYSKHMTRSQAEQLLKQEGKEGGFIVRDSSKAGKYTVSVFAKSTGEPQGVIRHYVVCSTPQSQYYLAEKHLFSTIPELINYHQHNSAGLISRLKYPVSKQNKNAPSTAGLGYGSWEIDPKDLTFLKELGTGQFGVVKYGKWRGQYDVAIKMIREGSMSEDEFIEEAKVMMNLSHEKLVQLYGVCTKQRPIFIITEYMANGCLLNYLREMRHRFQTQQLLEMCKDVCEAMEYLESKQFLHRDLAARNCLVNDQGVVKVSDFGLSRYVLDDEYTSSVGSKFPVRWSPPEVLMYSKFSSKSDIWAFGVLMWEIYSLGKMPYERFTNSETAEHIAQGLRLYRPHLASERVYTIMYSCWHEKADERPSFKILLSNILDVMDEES
Procedure: Female C57BL/6J mice (Jackson Laboratories) were used for this study. Compounds or vehicle/control were prepped with EtOH; PEG-400; Phosal 53 MCT (10:30:60, v/v). Four mice were tested per compound or vehicle/control. On Day 1, mice were administered a single dose of Dose A. On Day 2 (after 24 hours), tissue (bone marrow) was collected from one hind leg per mouse.
An MSD (Meso Scale Discovery) ELISA (enzyme-linked immunosorbent assay) based assay was used to determine BTK degradation in mouse bone marrow. The following materials and equipment were used: 10% NP40 solution (nonionic polyoxyethylene surfactant, ThermoFisher, cat no. 28324); protease inhibitor mini tablet (Roche, cat no. 05 892 970 001); PhosphoSTOP™ tablet (Roche, cat no. 04 906 837 001); Pierce™ BCA Protein Assay Kit (Thermofisher, Cat No. 23225); Precellys® 2 mL lysing tube with 2.8 mm beads (VWR, cat no. 10032-756); Bertin Precellys® 24/Cryolys® cooling system; 96-well MSD streptavidin pre-coated plates (MSD, cat no. L15SA-1); MSD Blocker A (MSD, cat no. R93BA-4); capture antibody, biotinylated BTK mAb (BD Biosciences, cat no. 624008; custom order); primary detection antibody, BTK RpAb (rabbit polyclonal antibody, CST, cat no. 8547S, D3H5 clone); secondary detection antibody, anti-Rabbit-Sulfo-Tag (MSD, cat no. R32AB-1); read Buffer, 4× (MSD, cat no. R92TC-1); recombinant BTK protein (Thermofisher, cat no. PR5442A); MSD Tris Wash Buffer (10×) (MSD, cat no. R61TX-1); PBS (phosphate-buffered saline); deionized water (diH2O); Lysis Buffer [0.2% NP40 in PBS+Protease Inhibitor tablet (1 tablet/10 mL)+PhosphoSTOP tablet (1 tablet/10 mL)]; 3% MSD Blocker A [MSD Blocker A+450 mL diH2O+50 mL]; and 10×MSD Tris Wash Buffer.
Lysis buffer [(PBS+0.2% NP40+PI (protease inhibitor)+PhosphoSTOP)] was prepared and put on ice until it was fully cold. Ice cold lysis buffer […] was added to each Precellys® tube containing beads and bone marrow sample. Sample tubes were transferred into Precellys® machine and homogenized using 5000 rpm—2×20 seconds. The sample lysates were centrifuged at 14,000 rpm for 20 minutes at 4° C. after homogenizing.
The protein concentration was determined using Pierce™ BCA Protein Assay Kit following manufacturer's recommended protocol. The protein normalized working solution was prepared, using 30 μg protein per sample lysate for assay.
A 300 ng/ml working stock solution of recombinant BTK protein in lysis buffer was prepared, and the sample was serially diluted at 3-fold dilution (10-point assay, highest concentration was 300 ng/mL and lowest concentration was 0.015 ng/mL)
MSD plate coating: Coating antibody (biotinylated-BTK mAb) stock solution was prepared at 1 μg/mL in PBS buffer. 50 μL/well capture antibody (Biotinylated BTK mAb) solution was added, and the plates were shaken gently at ambient temperature for two hours. The plates were washed 3 times with 1×MSD Tris Wash Buffer in a plate washer (300 μL/well), and the plates were blocked with 3% MSD Blocker A (150 μL/well). The plates were incubated for an additional 1-2 hours at ambient temperature with gentle shaking. The plates were washed 3 times with 1×MSD wash buffer using plate washer. Bone marrow lysates (30 μg) at a final volume of 50 μL/well were added into the plates. The serially diluted standard samples were added to the same plates at a final volume of 50 μL/well. The plates were incubated overnight at 4° C. with gentle shaking.
The plates were washed three times with 1×MSD wash buffer (prepared from 10× concentration buffer) using plate washer. Primary detection antibody at 50 μL/well was added (BTK RpAb; 1:1000 dilution in 1% MSD Blocker A). The plates were incubated for two hours at ambient temperature with gentle shaking. The plates were washed three times with 1×MSD wash buffer using plate washer. Anti-Rabbit-SULFO-TAG secondary antibodies (50 μl/well) were added, 1:500 diluted in 1% MSD Blocker A, and the plates were incubated for one to two hours at ambient temperature. […]

Sequence of BTK protein in human whole blood (Q06187 whole entry): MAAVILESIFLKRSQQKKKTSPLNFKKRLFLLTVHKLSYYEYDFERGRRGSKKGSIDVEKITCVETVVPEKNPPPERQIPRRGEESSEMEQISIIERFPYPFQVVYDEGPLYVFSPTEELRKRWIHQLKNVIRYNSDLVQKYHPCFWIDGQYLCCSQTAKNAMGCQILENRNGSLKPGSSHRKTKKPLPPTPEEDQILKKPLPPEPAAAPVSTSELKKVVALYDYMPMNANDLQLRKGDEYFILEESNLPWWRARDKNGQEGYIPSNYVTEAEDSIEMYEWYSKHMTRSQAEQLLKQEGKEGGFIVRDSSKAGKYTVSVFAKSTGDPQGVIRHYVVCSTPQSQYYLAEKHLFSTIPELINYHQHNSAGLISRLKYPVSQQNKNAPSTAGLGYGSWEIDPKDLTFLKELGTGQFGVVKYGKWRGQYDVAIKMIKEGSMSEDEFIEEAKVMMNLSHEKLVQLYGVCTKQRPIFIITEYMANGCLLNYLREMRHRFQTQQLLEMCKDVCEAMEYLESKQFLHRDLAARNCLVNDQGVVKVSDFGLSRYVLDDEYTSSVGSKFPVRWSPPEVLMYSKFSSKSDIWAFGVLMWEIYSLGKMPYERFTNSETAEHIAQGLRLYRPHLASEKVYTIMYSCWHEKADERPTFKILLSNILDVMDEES

Row | Dmax [1] [%] | Mouse Bone Marrow (%) (% remaining BTK, vehicle versus treated) (BTK in mouse bone marrow) | Compound
1 | 99.5 | 31 | Cc1cc(-c2cc(Nc3ccc(N4CCN(CCc5ccc(N6CCC(=O)NC6=O)cc5)CC4(C)C)cn3)ncn2)ccc1[C@@H](C)NC(=O)c1nc(C(C)(C)C)no1 [Example 9, 3-tert-butyl-N-{(1R)-1-[4-(6-{{5-(4-{2-[4-(2,4-dioxo-1,3-diazinan-1-yl)phenyl]ethyl}-2,2-dimethylpiperazin-1-yl)pyridin-2-yl}amino}pyrimidin-4-yl)-2-methylphenyl]ethyl}-1,2,4-oxadiazole-5-carboxamide]
2 | 98.5 | 9 | Cc1c([C@@H](C)NC(=O)c2nc(C(C)(C)C)no2)ccc(-c2cc(Nc3ccc(N4CCN(CCc5ccc(N6CCC(=O)NC6=O)cc5)C[C@@H]4C)cn3)ncn2)c1F [Example 10, 3-tert-butyl-N-[(1R)-1-{4-[6-({5-[(2S)-4-{2-[4-(2,4-dioxo-1,3-diazinan-1-yl)phenyl]ethyl}-2-methylpiperazin-1-yl]pyridin-2-yl}amino)pyrimidin-4-yl]-3-fluoro-2-methylphenyl}ethyl]-1,2,4-oxadiazole-5-carboxamide]
3 | 97.7 | 29 | Cc1c([C@@H](C)NC(=O)c2nc(C(C)(C)C)no2)ccc(-c2cc(Nc3ccc(N4CCN(CCc5ccc(N6CCC(=O)NC6=O)cc5)CC4)cn3)ncn2)c1F [Example 11, 3-tert-butyl-N-{(1R)-1-[4-(6-{[5-(4-{2-[4-(2,4-dioxo-1,3-diazinan-1-yl)phenyl]ethyl}piperazin-1-yl)pyridin-2-yl]amino}pyrimidin-4-yl)-3-fluoro-2-methylphenyl]ethyl}-1,2,4-oxadiazole-5-carboxamide]
4 | 99.8 | 17 | Cc1cc(-c2cc(Nc3ccc(N4CCN(CCc5ccc(N6CCC(=O)NC6=O)cc5)CC4)cn3)ncn2)c(F)cc1[C@@H](C)NC(=O)c1nc(C(C)(C)C)no1 [Example 12, 3-tert-butyl-N-{(1R)-1-[4-(6-{[5-(4-{2-[4-(2,4-dioxo-1,3-diazinan-1-yl)phenyl]ethyl}piperazin-1-yl)pyridin-2-yl]amino}pyrimidin-4-yl)-5-fluoro-2-methylphenyl]ethyl}-1,2,4-oxadiazole-5-carboxamide]
5 | 99 | 26 | Cc1cc(-c2cc(Nc3ccc(N4CCN(CCc5ccc(N6CCC(=O)NC6=O)cc5)C[C@@H]4C(C)C)cn3)ncn2)ccc1[C@@H](C)NC(=O)c1nc(C(C)(C)C)no1 [Example 13, 3-tert-butyl-N-[(1R)-1-{4-[6-({5-[(2S)-4-{2-[4-(2,4-dioxo-1,3-diazinan-1-yl)phenyl]ethyl}-2-(propan-2-yl)piperazin-1-yl]pyridin-2-yl}amino)pyrimidin-4-yl]-2-methylphenyl}ethyl]-1,2,4-oxadiazole-5-carboxamide]
6 | 99.7 | 16 | C[C@@H](NC(=O)c1nc(C(C)(C)C)no1)c1ccc(-c2cc(Nc3ccc(N4CCN(CCc5ccc(N6CCC(=O)NC6=O)cc5)C[C@@H]4C)cn3)ncn2)cc1Cl [Example 14, 3-tert-butyl-N-[(1R)-1-{2-chloro-4-[6-({5-[(2S)-4-{2-[4-(2,4-dioxo-1,3-diazinan-1-yl)phenyl]ethyl}-2-methylpiperazin-1-yl]pyridin-2-yl}amino)pyrimidin-4-yl]phenyl}ethyl]-1,2,4-oxadiazole-5-carboxamide]
7 | 99.5 | 25 | Cc1cc(-c2cc(Nc3ccc(N4CCN(CCc5ccc(N6CCC(=O)NC6=O)cc5)C[C@@H]4C)cc3)ncn2)ccc1[C@@H](C)NC(=O)c1nc(C(C)(C)C)no1 [Example 18]
8 | 100 | 51 | Cc1cc(-c2cc(Nc3ccc(CCN4CCN(c5ccc(N6CCC(=O)NC6=O)cc5)CC4)cn3)ncn2)ccc1[C@@H](C)NC(=O)c1nc(C(C)(C)C)no1 [Example 19]
